Reference: ChEMBL document CHEMBL3352656 (Bioorg Med Chem Lett, 2015)

Key:
[1] = Mean residence time in Wistar rat at 0.4 mg/kg, iv by HPLC-MS/MS method; format: ADME, organism-based; parameters: dose 0.4 mg/kg, route intravenous; details: in vivo
[2] = Permeability from apical to basolateral side in human Caco2 cells by HPLC-MS/MS method; format: ADME, cell-based; details: Caco-2, read-out: permeability
[3] = Volume of distribution at steady state in Wistar rat at 0.4 mg/kg, iv by HPLC-MS/MS method; format: ADME, organism-based; parameters: dose 0.4 mg/kg, route intravenous; details: in vivo, read-out: Vdss
[4] = Oral bioavailability in Wistar rat at […] by HPLC-MS/MS method; format: ADME, organism-based; details: in vivo
[5] = Permeability from basolateral to apical side in human Caco2 cells by HPLC-MS/MS method; format: ADME, cell-based; details: Caco-2, read-out: permeability

## CC(C)(C)c1cc(NC(=O)[C@@H]2CCCCN2C(=O)N2CCS(=O)(=O)CC2)no1
[1]
  MRT: 36 min
[2]
  Papp A→B: 20 ×10⁻⁶ cm/s
[3]
  Vd: 0.5 L/kg
[4]
  bioavailability: 62%
[5]
  Papp B→A: 22 ×10⁻⁶ cm/s
